Reference: ChEMBL document CHEMBL1201862, “PubChem BioAssay data set” (2004)
Active and inactive are the calls of the source.

Legend:
[1] = Luminescence Cell-Based Dose Retest to Confirm Inhibitors of Cancer Stem Cells. [Related pubchem assays (depositor defined):AID2717, AID2721]; assay type: functional; conditions: Homo sapiens
[2] = molecular target: Oxytocin receptor (Homo sapiens, UniProt P30559); assay: Counterscreen for vasopressin 1 receptor (V1R) agonists: Fluorescence-based cell-based high throughput dose response assay for agonists of the Oxytocin Receptor (OXTR). [Related pubchem assays: 2435 (Primary screen (OXTR agonists in singlicate)), 434964 (Confirmation screen (V1R agonists in triplicate)), 434969 (Counterscreen (OXTR agonists in …; assay type: functional
Chain of Oxytocin receptor (P30559 whole entry): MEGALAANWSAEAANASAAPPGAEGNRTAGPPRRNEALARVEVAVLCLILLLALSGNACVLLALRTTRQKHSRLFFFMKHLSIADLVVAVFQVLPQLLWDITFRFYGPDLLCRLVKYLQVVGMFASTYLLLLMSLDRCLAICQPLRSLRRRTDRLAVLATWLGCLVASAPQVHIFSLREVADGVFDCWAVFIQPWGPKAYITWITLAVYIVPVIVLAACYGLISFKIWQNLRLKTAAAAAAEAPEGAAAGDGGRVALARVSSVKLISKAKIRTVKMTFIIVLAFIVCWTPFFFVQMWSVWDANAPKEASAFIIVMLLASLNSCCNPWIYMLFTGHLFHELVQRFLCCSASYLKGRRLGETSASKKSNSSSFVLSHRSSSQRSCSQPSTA

[3] = molecular target: Vasopressin V1a receptor (Homo sapiens, UniProt P37288); assay: Fluorescence-based cell-based high throughput dose response screening assay for agonists of the vasopressin 1 receptor (V1R).; assay type: functional
Chain of Vasopressin V1a receptor (P37288 whole entry): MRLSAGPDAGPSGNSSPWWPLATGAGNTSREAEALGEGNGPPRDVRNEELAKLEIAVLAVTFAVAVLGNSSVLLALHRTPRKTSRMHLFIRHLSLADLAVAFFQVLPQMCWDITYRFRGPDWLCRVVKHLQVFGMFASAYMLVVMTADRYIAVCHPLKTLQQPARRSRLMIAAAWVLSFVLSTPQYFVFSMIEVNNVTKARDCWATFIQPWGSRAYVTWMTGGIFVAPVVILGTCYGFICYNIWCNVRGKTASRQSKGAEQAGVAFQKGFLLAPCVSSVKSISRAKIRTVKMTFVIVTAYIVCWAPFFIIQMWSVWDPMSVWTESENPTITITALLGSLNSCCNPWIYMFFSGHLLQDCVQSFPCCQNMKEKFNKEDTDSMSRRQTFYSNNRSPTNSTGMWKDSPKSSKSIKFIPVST

[4] = mitochondrial function rescue without frataxin homolog – Friedreich's ataxia, plus single-dose screen, dose response (AID 1465); assay type: functional;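 note: yeast depleted of Yfh1p frataxin homolog grown on glycerol needing respiration; WST-1 tetrazolium dye reduction as measure of cellular dehydrogenase metabolic activity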
[5] = molecular target: Neuropeptide Y receptor type 1 (Homo sapiens, UniProt P25929); assay: IC50 of human NPY-Y1 blockers – cell-based, dose response (AID 1277); assay type: functional
Chain of Neuropeptide Y receptor type 1 (P25929 whole entry): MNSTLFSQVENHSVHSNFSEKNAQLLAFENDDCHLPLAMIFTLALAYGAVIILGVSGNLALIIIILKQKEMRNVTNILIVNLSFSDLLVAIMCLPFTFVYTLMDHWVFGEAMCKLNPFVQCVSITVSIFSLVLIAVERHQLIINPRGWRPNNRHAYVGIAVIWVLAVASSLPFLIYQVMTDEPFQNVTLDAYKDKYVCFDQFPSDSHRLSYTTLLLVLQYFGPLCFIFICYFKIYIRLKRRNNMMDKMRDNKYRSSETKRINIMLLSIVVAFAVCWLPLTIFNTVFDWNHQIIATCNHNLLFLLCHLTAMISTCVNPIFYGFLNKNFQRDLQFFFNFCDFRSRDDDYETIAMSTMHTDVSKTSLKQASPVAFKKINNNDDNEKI

[6] = molecular target: Neuropeptide Y receptor type 2 (Homo sapiens, UniProt P49146); assay: IC50 for human NPY-Y2 blockade – cell-based, counter-screen for NPY-Y1 antagonist project, dose response (AID 1278); assay type: functional
Chain of Neuropeptide Y receptor type 2 (P49146 whole entry): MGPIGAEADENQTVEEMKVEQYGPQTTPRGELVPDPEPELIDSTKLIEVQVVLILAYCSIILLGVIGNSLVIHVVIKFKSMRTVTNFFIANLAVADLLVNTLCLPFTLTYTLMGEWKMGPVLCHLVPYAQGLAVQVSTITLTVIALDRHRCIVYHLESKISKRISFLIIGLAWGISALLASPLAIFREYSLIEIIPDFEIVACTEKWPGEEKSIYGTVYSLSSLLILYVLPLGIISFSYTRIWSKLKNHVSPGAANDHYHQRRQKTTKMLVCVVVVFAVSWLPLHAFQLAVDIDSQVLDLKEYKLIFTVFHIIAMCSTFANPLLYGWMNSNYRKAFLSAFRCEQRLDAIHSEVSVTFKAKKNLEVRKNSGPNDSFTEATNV

[7] = viability loss in Vero cells – cytotoxicity control for Vif-APOBEC3G degradation inhibitor project, dose response (AID 1117358); assay type: functional; conditions: Vero
[8] = molecular target: Protein Rev (Human immunodeficiency virus type 1 group M subtype B (isolate WMJ22)(HIV-1), UniProt P05866); assay: inhibitors of Rev protein–RRE RNA complex – biochemical, protein-RNA interaction, dose response (AID 842); parameters: species or system Human immunodeficiency virus 1
Chain of Protein Rev (P05866 whole entry): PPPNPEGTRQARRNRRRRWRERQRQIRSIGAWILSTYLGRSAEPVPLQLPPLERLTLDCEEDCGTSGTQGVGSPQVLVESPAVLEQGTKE

[9] = alpha-synuclein stem-loop translation blockers – luminescence, H4 neuroglioblastoma cells, dose confirmation, confirmation (AID 2454); assay type: functional, cell-based;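 note: H4 neuroglioblastoma cells carrying an alpha-synuclein 5'UTR luciferase reporter; potency for inhibition of the luciferase signal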
[10] = tested on: BJ; assay: cells; assay type: functional, cell-based; conditions: Homo sapiens
[11] = DRD fibroblast viability loss – cell-based, non-viral oncogenic, luminescence, dose response (AID 1934); assay type: functional; conditions: Homo sapiens
[12] = HEK-293T viability loss after treatment – luminescence, T-cell screen hits, cytotoxicity control for TCR NF-kB inhibitor project, dose response (AID 489026); assay type: functional, cell-based;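 note: cells exposed to compound about 14 hours before the viability readout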
[13] = luciferase reporter signal suppression in cells – H4 neuroglioma cells, luminescence, dose response (AID 1990); assay type: functional, cell-based
[14] = Luminescence Cell-Based Dose Response HTS to Identify Inhibitors of 5'UTR Stem-Loop Driven Prion Protein mRNA Translation in H4 Neuroglioblastoma Cells. [Related pubchem assays: 1827 (Project Summary), 1813 (Primary HTS)]; assay type: functional
[15] = alpha-synuclein stem-loop luciferase translation blockers – H4 neuroglioma cells, luminescence, confirmation (AID 1988); assay type: functional, cell-based
[16] = tested on: BJ; assay: BJ-TERT-LT-ST fibroblast viability loss – cell-based, RAS-independent, luminescence, dose response (AID 1935); assay type: functional; conditions: Homo sapiens;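 note: BJ fibroblasts immortalized with TERT plus LT and ST oncogenes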
[17] = cells; assay type: functional, cell-based
[18] = tested on: BJ; assay: BJ-TERT fibroblast viability loss – cell-based, RAS-independent, luminescence, dose response (AID 1933); assay type: functional; conditions: Homo sapiens
[19] = molecular target: Paired box protein Pax-8 (Homo sapiens, UniProt Q06710); assay: PAX8 transcriptional activity inhibition in RMG-I – RMG-I cells, luciferase, cherry-pick, dose response (AID 687027); assay type: functional, cell-based;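 note: luciferase reporter driven by Pax8 target thyroperoxidase promoter measured by SteadyGlo luminescence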
Chain of Paired box protein Pax-8 (Q06710 whole entry, the tested form may be a part): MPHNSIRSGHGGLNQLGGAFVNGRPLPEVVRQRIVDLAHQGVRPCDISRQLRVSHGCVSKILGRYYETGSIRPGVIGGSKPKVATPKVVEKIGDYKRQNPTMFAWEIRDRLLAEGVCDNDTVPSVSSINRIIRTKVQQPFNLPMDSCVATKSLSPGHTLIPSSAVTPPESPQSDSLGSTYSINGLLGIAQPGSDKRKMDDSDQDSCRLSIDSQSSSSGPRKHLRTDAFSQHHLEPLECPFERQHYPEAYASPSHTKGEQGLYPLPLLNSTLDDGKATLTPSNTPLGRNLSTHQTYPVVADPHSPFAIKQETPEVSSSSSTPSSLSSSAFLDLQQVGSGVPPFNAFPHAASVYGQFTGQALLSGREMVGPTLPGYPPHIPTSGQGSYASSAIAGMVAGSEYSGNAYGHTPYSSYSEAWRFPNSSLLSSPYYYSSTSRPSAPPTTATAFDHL

[20] = luciferase reporter signal reduction – luminescence, H4-C neuroglioblastoma cells, dose response (AID 2458); assay type: functional, cell-based;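 note: H4 neuroglioblastoma cells stably carrying a luciferase reporter gene fusion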
[21] = molecular target: Aryl hydrocarbon receptor (Homo sapiens, UniProt P35869); assay: Luminescence-based cell-based high throughput dose response assay for activators of the Aryl Hydrocarbon Receptor (AHR). [Related pubchem assays: 2796 (Primary screen (AHR activators in singlicate)), 2845 (Confirmation screen (AHR activators in triplicate)), 434939 (Counterscreen (PXR activators in triplicate)), 2804 (Summary (AHR activators))]; assay type: ADME
Chain of Aryl hydrocarbon receptor (P35869 whole entry): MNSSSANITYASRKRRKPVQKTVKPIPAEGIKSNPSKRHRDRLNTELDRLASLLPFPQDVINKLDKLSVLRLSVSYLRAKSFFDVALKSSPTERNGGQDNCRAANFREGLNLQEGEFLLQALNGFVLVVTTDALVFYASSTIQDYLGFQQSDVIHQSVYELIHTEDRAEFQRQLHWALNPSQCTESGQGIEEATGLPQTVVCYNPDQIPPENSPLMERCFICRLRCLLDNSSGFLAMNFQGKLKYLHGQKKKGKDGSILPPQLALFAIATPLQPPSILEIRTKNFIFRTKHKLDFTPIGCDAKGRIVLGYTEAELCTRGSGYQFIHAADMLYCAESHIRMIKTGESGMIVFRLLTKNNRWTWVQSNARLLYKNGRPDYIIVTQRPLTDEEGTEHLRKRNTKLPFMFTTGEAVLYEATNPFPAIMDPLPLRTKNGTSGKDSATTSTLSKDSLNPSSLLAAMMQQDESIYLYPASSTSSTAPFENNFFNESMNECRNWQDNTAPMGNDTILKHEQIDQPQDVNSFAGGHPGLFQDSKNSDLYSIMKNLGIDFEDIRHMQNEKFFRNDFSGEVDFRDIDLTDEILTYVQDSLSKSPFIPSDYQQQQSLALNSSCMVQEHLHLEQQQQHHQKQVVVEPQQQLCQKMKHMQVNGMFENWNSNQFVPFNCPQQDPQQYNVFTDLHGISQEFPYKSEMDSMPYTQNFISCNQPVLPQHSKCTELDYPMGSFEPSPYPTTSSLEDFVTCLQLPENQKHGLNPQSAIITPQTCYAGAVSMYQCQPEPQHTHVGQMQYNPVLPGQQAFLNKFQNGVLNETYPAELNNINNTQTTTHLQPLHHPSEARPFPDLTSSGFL

[22] = tested on: INS1; assay: INS-1E survival protection against cytokine death – cell-based, luminescence, retest, dose response (AID 449756); assay type: functional; conditions: Rattus norvegicus;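 note: cell death triggered by IL-1 beta plus TNF-alpha plus IFN-gamma mixture; protective hits raise ATP signal compared with cytokine alone wells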
[23] = tested on: Vero; assay: mammalian cell viability reduction – secondary assay, cytotoxicity control for West Nile virus antiviral project, dose response (AID 1650); assay type: functional; conditions: Chlorocebus sabaeus

## CCc1ccc(N=Nc2ccc(O)c3[nH]cnc23)cc1
[1]
  AC50: 996 nM (active)
[2]
  EC50: > 29900 nM (not active)
[3]
  EC50: > 29900 nM (not active)

## CCOC(=O)/C(=C\C=C1/Sc2ccccc2N1CC)C(C)=O
[4]
  EC50: > 100000 nM (active)

## CCOC(=O)C(/C=N/c1cc(C)nn1-c1ccc(Cl)cc1)=C(\O)OCC
[5]
  IC50: 18900 nM (not active)
[6]
  IC50: 30600 nM (not active)

## CCN(CC)CCNC1=NCCn2c1cc1cc(OC)ccc12
[7]
  CC50: > 40000 nM (active)
[8]
  IC50: > 79400 nM (not active)

## COc1cc2c(c(OC)c1OC)-c1ccc(O)cc1[C@@H](NC(C)=O)CC2 [N-ACETYLCOLCHINOL]
[9]
  EC50: 72 nM (active)
[10]
  EC50: 345 nM (inconclusive)
[11]
  EC50: 201 nM (active)
[12]
  IC50: > 80000 nM (inactive)
[13]
  EC50: < 100 nM (active)
[14]
  EC50: < 100 nM (active)
[15]
  EC50: < 100 nM (active)
[16]
  EC50: 146 nM (inconclusive)
[17]
  EC50: 100 nM (active)
[18]
  EC50: 193 nM (active)
[19]
  AC50: 370 nM (active)
[20]
  EC50: 88 nM (active)

## O=C(Nc1cccc(-c2nc3cc(Cl)ccc3o2)c1)C1CCCO1 (stereo not drawn)
[21]
  EC50: 2580 nM (active)

## CC1=NN(c2nc(-c3ccc(C)cc3)cs2)C(=O)C1N=Nc1ccc(C(N)=O)cc1 (stereo not drawn)
[22]
  AC50: 2530 nM (active)
[23]
  CC50: 6040 nM (active)
